For one series, the target named is T1, renin (Homo sapiens, UniProt P00797).
T1 sequence (P00797 67-406): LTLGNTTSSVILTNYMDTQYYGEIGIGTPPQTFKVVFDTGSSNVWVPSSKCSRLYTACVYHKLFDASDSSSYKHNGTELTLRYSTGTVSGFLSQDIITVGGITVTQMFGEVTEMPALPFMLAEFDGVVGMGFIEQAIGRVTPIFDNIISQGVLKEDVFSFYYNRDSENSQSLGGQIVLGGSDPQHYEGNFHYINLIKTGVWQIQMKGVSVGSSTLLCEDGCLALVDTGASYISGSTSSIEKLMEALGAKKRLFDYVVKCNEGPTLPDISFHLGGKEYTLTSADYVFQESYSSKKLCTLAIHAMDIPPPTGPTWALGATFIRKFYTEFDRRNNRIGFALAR
Nature of the series: in vitro inhibition of renin, radio immunoassay detection of Angiotensin I from an angiotensinogen-like substrate. The series is classed as biochemical. Particulars: 10^-6 M concentration of test compound. From the text:
The potent in vitro inhibition of the aspartyl protease renin was established using standard radio immunoassay techniques for the detection of Angiotensin I from an angiotensinogen-like substrate [Haber et al. (1969), J. Clin. Endocrinol. 29, 1349]. The results of these standard test procedures appears at the end of each Example of preparation of the relevant compound, as the percent inhibition of renin activity at […] concentration of test compound. The compounds of this invention have also shown strong resistance to breakdown by degradative enzymes such as chymotrypsin, following the procedure of Thaisrivongs et al. (1987) J. Med. Chem. 30, 536-541. […] Even after a 24 hour incubation, 68% of the compound of Example 1 remained. In accord with their ability to inhibit the enzyme renin, the compounds of this invention show plasma renin lowering effects and an antihypertensive action in a furosemide-stimulated high-renin model [De […]. et al. (1985), J. Cardiovascular Pharmacology 7, (Suppl. 4), S58-S61] with conscious rhesus monkeys, utilizing intravenous as well as oral dosing. For example, the product of Example 1 administered at 5 mg/kg iv lowered plasma renin activity (PRA) from 45 ng/ml/min to 5 ng/ml/min one half hour post-administration. Mean arterial pressure (MAP) was lowered 25 mm in that time period.

A short description of series [1]: resistance to breakdown on incubation with chymotrypsin. The format is in vitro ADME. Particulars: read-out: remaining compound after incubation with chymotrypsin; for remaining at 1 h: incubation for one hour. The source says:
The potent in vitro inhibition of the aspartyl protease renin was established using standard radio immunoassay techniques for the detection of Angiotensin I from an angiotensinogen-like substrate [Haber et al. (1969), J. Clin. Endocrinol. 29, 1349]. The results of these standard test procedures appears at the end of each Example of preparation of the relevant compound, as the percent inhibition of renin activity at […] concentration of test compound. The compounds of this invention have also shown strong resistance to breakdown by degradative enzymes such as chymotrypsin, following the procedure of Thaisrivongs et al. (1987) J. Med. Chem. 30, 536-541. For example, the compound of Example 1 was nearly unchanged upon incubation with chymotrypsin for one hour (93% remaining compound) whereas Boc-Phe Leu-ACHBA-OMe was extensively degraded (22% remaining compound) in the same time period. Even after a 24 hour incubation, 68% of the compound of Example 1 remained. In accord with their ability to inhibit the enzyme renin, the compounds of this invention show plasma renin lowering effects and an antihypertensive action in a furosemide-stimulated high-renin model [De Claviere, M. et al. (1985), J. Cardiovascular Pharmacology 7, (Suppl. 4), S58-S61] with conscious rhesus monkeys, utilizing intravenous as well as oral dosing. For example, the product of Example 1 administered at 5 mg/kg iv lowered plasma renin activity (PRA) from 45 ng/ml/min to 5 ng/ml/min one half hour post-administration. Mean arterial pressure (MAP) was lowered 25 mm in that time period.

Series [2] concerns conscious rhesus monkeys (furosemide-stimulated high-renin model). Nature of the series: furosemide-stimulated high-renin model with conscious rhesus monkeys. The format is in vivo.
Setting [3] is: orally at 50 ng/kg, one-half hour post-administration.

In the case of `CC(C)C[C@H](NC(=O)[C@H](Cc1ccccc1)N1Cc2ccccc2C1=O)C(=O)NC(CC1CCCCC1)C(O)C(=O)OC(C)C` (single isomer, unassigned) [Example 2 Diastereomer A, Beta-[[2-[[2-[1,3-dihydro-1-oxo-2H-isoindol-2-yl]-1-oxo-3-phenylpropyl]amino]-4-methyl-1-oxo-pentyl]amino]-alpha-hydroxycyclohexanebutanoic acid 1-methylethyl ester], the “% I, percent inhibition of renin activity” value (“% I, percent inhibition” below) at renin was determined as 98%.

Turning to `COC(=O)C(O)C(CC1CCCCC1)NC(=O)[C@H](CC(C)C)NC(=O)[C@H](Cc1ccccc1)NC(=O)OC(C)(C)C` (stereo partly drawn) [Boc-Phe Leu-ACHBA-OMe, N-tertiary butyloxycarbonyl-Phe-Leu-3-amino-4-cyclohexyl-2-hydroxybutanoic acid methyl ester, reference compound], in series [1], the amount remaining at 1 h was 22%.

Consider `COC(=O)C(O)C(CC1CCCCC1)NC(=O)[C@H](CC(C)C)NC(=O)[C@H](Cc1ccccc1)N1Cc2ccccc2C1=O` (stereo partly drawn) [Example 1, Beta-[[2-[[2-[1,3-dihydro-1-oxo-2H-isoindol-2-yl]-1-oxo-3-phenylpropyl]amino]-4-methyl-1-oxo-pentyl]amino]-alpha-hydroxycyclohexanebutanoic acid methyl ester], for which the “% I, percent inhibition” value on renin is on record as 97%. In addition, in series [1] (24 hour incubation), the amount remaining at 24 h was 68%. Also, in series [1], the amount remaining at 1 h was 93%. For the same molecule, in series [2] (5 mg/kg iv, one half hour post-administration), the “lowering of mean arterial pressure (MAP)” value is listed as 25 mm. Further, in series [2] (5 mg/kg iv, one half hour post-administration, lowered from 45 ng/ml/min), the “plasma renin activity (PRA) after administration” value amounted to 5 ng/mL/min. In addition, in series [2] (setting [3]), the “change in MAP” value was “no significant change” and the “decrease of PRA” value is listed as 50%.

For the molecule `COC(=O)C(O)C(CC1CCCCC1)NC(=O)[C@H](CC(C)C)NC(=O)[C@H](Cc1ccccc1)N1Cc2ncccc2C1=O` (stereo partly drawn) [Example 3, Beta-[[2-[[-2-(1,3-dihydro-1-oxo-2H-pyrrolo[3,4-b]pyridin-2-yl)-1-oxo-3-phenylpropyl]amino]-4-methyl-1-oxopentyl]amino]-alpha-hydroxycyclohexanebutanoic acid methyl ester], on renin, the “% I, percent inhibition” value is reported as 89%.

Consider `COC(=O)C(O)C(CC1CCCCC1)NC(=O)[C@H](Cc1c[nH]cn1)NC(=O)[C@H](Cc1ccccc1)N1Cc2ccccc2C1=O` (stereo partly drawn) [Example 4, Beta-[[2-[[2-(1,3-dihydro-1-oxo-2H-isoindol-2-yl)-1-oxo-3-phenylpropyl]amino]-3-(1H-imidazol-4-yl)-1-oxopropyl]amino]-alpha-hydroxycyclohexane butanoic acid methyl ester], for which, at renin, the “% I, percent inhibition” value turned out to be 84%.

Turning to `CC(C)OC(=O)C(O)C(CC1CCCCC1)NC(=O)[C@H](Cc1c[nH]cn1)NC(=O)[C@H](Cc1ccccc1)N1Cc2ccccc2C1=O` (stereo partly drawn) [Example 5, Beta-[[2-[[2-(1,3-dihydro-1-oxo-2H-isoindol-2-yl)-1-oxo-3-phenylpropyl]amino]-3-(1H-imidazol-4-yl)-1-oxopropyl]amino]-alphahydroxycyclohexanebutanoic acid 1-methylethyl ester], the “% I, percent inhibition” value on renin is listed as 83%.

In the case of `COC(=O)C(O)C(CC1CCCCC1)NC(=O)[C@H](CC(C)C)NC(=O)[C@H](Cc1ccccc1)N1C(=O)c2ccccc2C1=O` (stereo partly drawn) [Example 6, Beta-[[2-[[2-(1,3-dihydro-1,3-dioxo-2H-isoindol-2-yl)-1-oxo-3-phenylpropyl]amino]-4-methyl-1-oxopentyl]amino]-alphahydroxycyclohexanebutanoic acid methyl ester], on renin, the “% I, percent inhibition” value is on record as 45%.

As to `COC(=O)C(O)C(CC1CCCCC1)NC(=O)[C@H](Cc1c[nH]cn1)NC(=O)[C@H](Cc1ccccc1)N1C(=O)c2ccccc2C1=O` (stereo partly drawn) [Example 7, Beta-[[2-[[2-(1,3-dihydro-1,3-dioxo-2H-isoindol-2-yl)-1-oxo-3-phenylpropyl]amino]-3-(1H-imidazol-4-yl)-1-oxopropyl]amino]-alphahydroxycyclohexanebutanoic acid methyl ester], at renin, the “% I, percent inhibition” value was determined as 9%.

Regarding `COC(=O)C(O)C(CC1CCCCC1)NC(=O)[C@H](CC(C)C)NC(=O)[C@H](Cc1ccccc1)N1C(=O)c2cccc3cccc(c23)C1=O` (some centres unmarked) [Example 8], the “% I, percent inhibition” value at renin came to 74%.

As for `COC(=O)C(O)C(CC1CCCCC1)NC(=O)[C@H](CC(C)C)NC(=O)[C@H](Cc1ccccc1)N1C(=O)OC(C)(C)C1C` (stereo partly drawn) [Example 9, Beta-[[2-[[2-[4,5,5-trimethyl-2-oxo-3-oxazolidinyl]-1-oxo-3-phenylpropyl]amino]-4-methyl-1-oxo-pentyl]amino]-alphahydroxycyclohexanebutanoic acid methyl ester], the “% I, percent inhibition” value on renin came to 76%.

Take `COC(=O)C(O)C(CC1CCCCC1)NC(=O)[C@H](CC(C)C)NC(=O)[C@H](Cc1ccccc1)N1CC(C)(C)OC1=O` (stereo partly drawn) [Example 10, Beta-[[2-[[2-[5,5-dimethyl-2-oxo-3-oxazolidinyl]-1-oxo-3-phenylpropyl]amino]-4-methyl-1-oxo-pentyl]amino]-alphahydroxycyclohexanebutanoic acid methyl ester]: the “% I, percent inhibition” value on renin is given as 86%.

Turning to `CCC[C@H](NC(=O)[C@H](Cc1ccccc1)N1Cc2ccccc2C1=O)C(=O)NC(CC1CCCCC1)C(O)C(=O)OC(C)C` (stereo partly drawn) [Example 11, Beta-[[2-[[2-[1,3-dihydro-1-oxo-2H-isoindol-2-yl]-1-oxo-3-phenylpropyl]amino]-1-oxo-pentyl]amino]-alphahydroxycyclohexanebutanoic acid 1-methylethyl ester], the “% I, percent inhibition” value on renin is on record as 99%.

As to `CCCC[C@H](NC(=O)[C@H](Cc1ccccc1)N1Cc2ccccc2C1=O)C(=O)NC(CC1CCCCC1)C(O)C(=O)OC(C)C` (stereo partly drawn) [Example 12, Beta-[[2-[[2-[1,3-dihydro-1-oxo-2H-isoindol-2-yl]-1-oxo-3-phenylpropyl]amino]-1-oxo-hexyl]amino]-alphahydroxycyclohexanebutanoic acid 1-methylethyl ester], the “% I, percent inhibition” value at renin was 99%.

Take `CC(C)C[C@H](NC(=O)[C@H](Cc1ccccc1)N1Cc2cccc3cccc(c23)C1=O)C(=O)NC(CC1CCCCC1)C(O)C(=O)OC(C)C` (stereo partly drawn) [Example 13, Beta-[[2-[[2-[1,3-dihydro-1-oxo-2H-benzisoquinolin-2-yl]-1-oxo-3-phenylpropyl]amino]-4-methyl-1-oxo-pentyl]amino]-alphahydroxycyclohexanebutanoic acid 1-methylethyl ester]: the “% I, percent inhibition” value on renin came out at 92%.

As to `CC(C)C[C@H](NC(=O)[C@H](Cc1ccccc1)N1CCCC1=O)C(=O)NC(CC1CCCCC1)C(O)C(=O)OC(C)C` (stereo partly drawn) [Example 14, Beta-[[2-[[2-[2-oxo-1-pyrrolidinyl]-1-oxo-3-phenylpropyl]amino]-4-methyl-1-oxo-pentyl]amino]-alpha-hydroxycyclohexanebutanoic acid 1-methylethyl ester], at renin, the “% I, percent inhibition” value is listed as 93%.

For the molecule `CC(C)C[C@H](NC(=O)[C@H](Cc1ccccc1)N1C[C@@H]2CCCN2C1=O)C(=O)NC(CC1CCCCC1)C(O)C(=O)OC(C)C` (stereo partly drawn) [Example 16, Beta-[[2-[[2-[(7aS)-tetrahydro-3-oxo-1H-pyrrolo[1,2-c]imidazol-2(3H)-yl]-1-oxo-3-phenylpropyl]amino]-4-methyl-1-oxo-pentyl]amino]-alpha-hydroxycyclohexanebutanoic acid 1-methylethyl ester], the “% I, percent inhibition” value at renin was determined as 91%.

For the molecule “Beta-[[2-[[2-[5-oxo-5H-imidazo[1,2-a]imidazol-6(7H)-yl]-1-oxo-3-phenylpropyl]amino]-4-methyl-1-oxo-pentyl]amino]-alpha-hydroxycyclohexanebutanoic acid 1-methylethyl ester [Example 15]”, the “% I, percent inhibition” value on renin is reported as 96%.

The record behind these values is patent publication US5023338A, “Renin inhibitors” (American Home Products Corporation, priority 1990, dated 1991).
